Measured values taken from US7759101B2, “Ginsenoside glycosidases hydrolyzing ginsenoside sugar moieties and uses thereof” (priority 2000, dated 2010).

What was measured:
[1] = system: ginsenoside glycosidases from wheat bran; assay: Hydrolysis of ginsenosides with ginsenoside glycosidases from wheat bran; type: biochemical; conditions: 10 ml of 1% ginsenoside substrate, 40° C., 20 hours
Experimental: 500 g of wheat bran was added to 2500 ml of 0.02 M acetate buffer pH 5 and extracted at 40° C. for 2 hours. 2000 ml of supernatant were obtained by filtration to which (NH4)2SO4 was added gradually with stirring until 70% saturation. The mixture stand at 4° C. overnight. Protein pellets were collected by centrifugation and redissolved in 80 ml of distilled water and dialyzed against 0.02 M acetate buffer pH 5.0. Insolubles were removed by centrifugation and the supernatant was adjusted to a volume of 200 ml to obtain the crude enzyme solution.
10 ml of the enzyme solution was allowed to react with 10 ml of 1% ginsenoside substrate at 40° C. for 20 hours.

[2] = system: Cellulose β-glucosidase of Clostridium and Bacillus (EC 3.2.1.21); assay: Comparison: hydrolysis of ginsenosides with cellulose β-glucosidase of Clostridium and Bacillus; type: biochemical, Clostridium thermocopiriae and Bacillus sp. AX; conditions: substrate 0.5%, pH 5.0, 30° C., 18 hours
Description: (§1) To observe the differences between the ginsenoside glycosidases of the invention and known exo-cellulases, the ginsenoside glycosidases of the invention were compared with cellulose β-glucosidase (E.C. 3.2.1.21) in two reactions with 0.5% ginsenosides Rb1 or Rd as substrate.
Cellulose β-glucosidases (EC 3.2.1.21) from Clostridium thermocopiriae and Bacillus sp. AX cannot hydrolyze any glycosides of ginsenosides. The cellulose β-glucosidase from almond slightly hydrolyzes the C-20 glycoside of Rb1, Rb2 and Rc to give ginsenoside Rd, but it cannot hydrolyze the glucoside at C-3. Ginsenoside glycosidase II is similar to cellulose β-glucosidase from almond, but it only slightly hydrolyzes Rd. The properties of ginsenoside glycosidase III are totally different from those of cellulose β-glucosidases.

[3] = system: Cellobiose-producing enzyme from Clostridium; assay: Comparison: hydrolysis of ginsenosides with cellobiose-producing enzyme; type: biochemical, Clostridium thermocopiriae; conditions: substrate 0.5%, pH 5.0, 30° C., 18 hours
Description: as §1
An exo-cellulase from Clostridium thermocopiriae (cellobiose-producing enzyme) cleaves cellodextrin to give cellobiose, but cannot hydrolyze diglucosidic bond at C-3 of ginsenoside Rd. So it is completely different from ginsenoside glycosidase III. Therefore, the ginsenoside glycosidases of the invention are enzymes different from known cellulose β-glucosidases and cellobiose-producing enzymes.

[4] = system: ginsenoside glycosidases from A. niger; assay: Hydrolysis of ginsenosides with crude ginsenoside glycosidases from A. niger, products measured by TLC; type: biochemical, Aspergillus niger; conditions: pH 5, 30° C., 18 hours
Experimental: Aspergillus niger FFCCDL-48 g was cultured in a medium containing 1% ginseng extracts and 3% wheat bran extracts at 30° C. for 54 hours. Cells were removed by centrifugation, after which (NH4)2SO4 powder was added to 2000 ml of the cell-free supernatant with stirring to 65% saturation. The solution was stored overnight at 4° C. and precipitated proteins were collected by centrifugation, resuspended in 80 ml of distilled water and dialyzed against 0.01M acetate buffer pH 5. Insolubles were removed by centrifugation, and the solution was adjusted to 200 ml with 0.01 M acetate buffer pH 5. The crude enzyme solution may be used to hydrolyze ginsenosides or to purify the enzymes.
100 mg each of ginsenosides Rb1, Rb2, Rc and Rd and 10 mg of ginsenoside Rg3 were dissolved in separate tubes containing 10 ml of 0.01M acetate buffer pH 5. 10 ml of the crude enzyme solution obtained in 1.1 was added to each tube and allowed to react at 30° C. for 18 hours. Then 10 ml of n-butanol was added to stop the reactions. The products were measured by thin layer chromatography (TLC) (Silica gel 60-F254, Merck; chloroform:methanol:water 70:30:5).
Experiments were carried out to explore the effects of temperature, pH, metal ions and reaction time on the enzyme reaction, in order to further characterize the enzymes.
100 mg of ginsenoside Rb1 was used in a reaction under the conditions as described in 1.2 and the effect of temperature was shown in Table 2.

**Q.** `CC(C)=CCC[C@](C)(O[C@@H]1O[C@H](CO)[C@@H](O)[C@H](O)[C@H]1O)[C@H]1CC[C@]2(C)[C@@H]1[C@H](O)C[C@@H]1[C@@]3(C)CC[C@H](O[C@@H]4O[C@H](CO)[C@@H](O)[C@H](O)[C@H]4O[C@@H]4O[C@H](CO)[C@@H](O)[C@H](O)[C@H]4O)C(C)(C)[C@@H]3CC[C@]12C` [Rd, ginsenoside Rd] was tested. Which “Percentage of F2 in the reaction product” value [1] did it give?
**A.** 40%

**Q.** And the “Percentage of Rd in the reaction product” value [1]?
**A.** 60%

**Q.** What about the “Percentage of Rb1 in the reaction product” value [2] of the same compound?
**A.** 100%

**Q.** And the “Percentage of Rb1 in the reaction product” value [3]?
**A.** 100%

**Q.** What about the “Percentage of C—K in the reaction product” value [4] of the same compound?
**A.** 25%

**Q.** What about the “Percentage of F2 in the reaction product” value [4] of the same compound?
**A.** 50%

**Q.** And the “Percentage of Rd in the reaction product” value [4]?
**A.** 15%

**Q.** And the “Percentage of Rh2 in the reaction product” value [4]?
**A.** 5%

**Q.** And the “Percentage of aglycone in the reaction product” value [4]?
**A.** 5%
